Reference: US7084145B2, “Triazole compounds useful in therapy” (Pfizer Inc., priority 2002, dated 2006)

Key:
human V1A receptor = target: T1, human V1A receptor (Homo sapiens, UniProt P37288); test: V1A filter binding assay ([3H]-AVP binding to CHO-hV1A membranes); details: screen 1.0, [3H]-AVP displacement
T1 construct: host or cells: CHO cells (CHO-hV1A), membrane preparation
Description: 1.0 V1A Filter Binding Assay
Receptor binding assays were performed on cellular membranes prepared from CHO cells stably expressing the human V1A receptor, (CHO-hV1A). The CHO-hV1A cell line was kindly provided under a licensing agreement by Marc Thibonnier, Dept. of Medicine, Case Western Reserve University School of Medicine, Cleveland, Ohio. CHO-hV1A cells were routinely maintained at 37° C. in humidified atmosphere with 5% CO2 in DMEM/Hams F12 nutrient mix supplemented with 10% fetal bovine serum, 2 mM L-glutamine, 15 mM HEPES and 400 μg/ml G418. For bulk production of cell pellets, adherent CHO-hV1A cells were grown to confluency of 90–100% in 850 cm^2 roller bottles containing a medium of DMEM/Hams F12 Nutrient Mix supplemented with 10% fetal bovine serum, 2 mM L-glutamine and 15 mM HEPES. Confluent CHO-hV1A cells were washed with phosphate-buffered saline (PBS), harvested into ice cold PBS and centrifuged at 1,000 rpm. Cell pellets were stored at −80° C. until use. Cell pellets were thawed on ice and homogenised in membrane preparation buffer consisting of 50 mM Tris-HCl, pH 7.4, 5 mM MgCl2 and supplemented with a protease inhibitor cocktail, (Roche). The cell homogenate was centrifuged at 1000 rpm, 10 min, 4° C. and the supernatant was removed and stored on ice. The remaining pellet was homogenised and centrifuged as before. The supernatants were pooled and centrifuged at 25,000×g for 30 min at 4° C. The pellet was resuspended in freezing buffer consisting of 50 mM Tris-HCl, pH 7.4, 5 mM MgCl2 and 20% glycerol and stored in small aliquots at −80° C. until use. Protein concentration was determined using Bradford reagent and BSA as a standard.
Protein linearity followed by saturation binding studies were performed on each new batch of membrane. Membrane concentration was chosen that gave specific binding on the linear portion of the curve.
Compounds were tested for their effects on [^3H]-AVP binding to CHO-hV1A membranes, (^3H-AVP; specific activity 65.5 Ci/mmol; NEN Life Sciences). Compounds were solubilised in dimethylsulfoxide (DMSO) and diluted to working concentration of 10% DMSO with assay buffer containing 50 mM Tris-HCL pH 7.4, 5 mM MgCl2 and 0.05% BSA. […] The plates were sealed and counted on a TopCount Microplate Scintillation Counter (Packard Instruments). […] The radioligand binding data was analysed using a four parameter logistic equation with the min forced to 0%. […] Specific binding was calculated by subtracting the mean NSB cpm from the mean Total cpm. […] The inhibitory dissociation constant (Ki) was calculated using the Cheng-Prusoff equation: Ki=IC50/(1+[L]/Kd) where [L] is the concentration of ligand present in the well and Kd is the dissociation constant of the radioligand obtained from Scatchard plot analysis.

T1 sequence (P37288 whole entry): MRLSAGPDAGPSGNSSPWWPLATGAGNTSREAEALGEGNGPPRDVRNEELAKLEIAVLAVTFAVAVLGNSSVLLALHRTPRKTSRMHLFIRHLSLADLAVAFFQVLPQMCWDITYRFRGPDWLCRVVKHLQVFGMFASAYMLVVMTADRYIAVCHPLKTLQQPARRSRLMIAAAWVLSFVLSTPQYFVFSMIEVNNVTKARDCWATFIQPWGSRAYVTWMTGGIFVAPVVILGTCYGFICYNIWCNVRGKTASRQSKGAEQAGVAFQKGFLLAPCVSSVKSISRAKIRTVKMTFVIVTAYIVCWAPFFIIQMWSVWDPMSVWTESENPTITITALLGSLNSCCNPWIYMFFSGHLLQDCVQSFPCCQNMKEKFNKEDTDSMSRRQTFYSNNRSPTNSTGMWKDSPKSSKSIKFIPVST

Ki (human V1A receptor) [nM] | melting point [°C] | SMILES
12.1 |  | c1ccc(Cn2c(CN3CCCCC3)nnc2C2CCN(c3ccccn3)CC2)cc1 [Example 24, 4-(4-Benzyl-5-piperidin-1-ylmethyl-4H-[1,2,4]triazol-3-yl)-3,4,5,6-tetrahydro-2H-[1,2′]bipyridinyl]
16.1 |  | C[C@@H](c1ccccc1)n1c(CN2CCCCC2)nnc1C1CCN(c2ccccn2)CC1 [Example 25, (S)-4-[4-(1-Phenyl-ethyl)-5-piperidin-1-ylmethyl-4H-[1,2,4]triazol-3-yl]-3,4,5,6-tetrahydro-2H-[1,2′]bipyridinyl]

The next lines start with the compound.

SMILES | Ki (human V1A receptor) [nM] | melting point [°C]
c1ccc(COCc2nnc(C3CCN(c4ccccn4)CC3)n2Cc2ccccc2)cc1 [Example 17, 4-(4-Benzyl-5-benzyloxymethyl-4H-[1,2,4]triazol-3-yl)-3,4,5,6-tetrahydro-2H-[1,2′]bipyridinyl] | 4.67 | 
Cc1nnc(C2CCN(c3cnccn3)CC2)n1Cc1ccccc1 [Example 23, 2-[4-(4-Benzyl-5-methyl-4H-[1,2,4]triazol-3-yl)-piperidin-1-yl]-pyrazine] |  | 191.1
COC1CCN(Cc2nnc(C3CCN(c4ccccn4)CC3)n2Cc2ccccc2)CC1 [Example 26, 4-[4-Benzyl-5-(4-methoxy-piperidin-1-ylmethyl)-4H-[1,2,4]triazol-3-yl]-3,4,5,6-tetrahydro-2H-[1,2′]bipyridinyl] | 4.5 | 
